# Measured values reported in patent US20250296938A1, “Compounds that Interact with the Ras Superfamily for the Treatment of Cancers, Inflammatory Diseases, Rasopathies, and Fibrotic Disease” (SHY Therapeutics, LLC, priority 2018, published 2025).
# Test system: KRas Q61H mutant
# Experiment: Ras GTP binding domain inhibition assay (Cy3-GTP/Cy5-GTP competition)
# Set-up: species or system human
# Settings: 20 μM; with SOS
# In short: (§1)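 First, His-tagged protein is coated on nickel wells overnight at 4 °C. Next, compound (20 μM single point or serial dilution) is added for 3 h at room temperature, with or without Sos exchange factor in the last hour. Finally, 100 nM labelled GTP binds for 45 min and retained signal is measured.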
row,Compound,KRas Q61H mutant + SOS: % inh.
1,COCC(C)Nc1nc(-c2nccn2C)nc2sc(-c3cccc(OC)c3)c(-c3cscn3)c12 (stereo not shown) [drawing 855],D (76-100% inhibition)
2,COC1CCN(c2nc(-c3nccn3C)nc3sc(-c4ccn(C)n4)c(-c4ccccc4)c23)CC1 [drawing 856],C (51-75% inhibition)
3,Cn1ccc(-c2sc3nc(-c4nccn4C)nc(N4CCC5(CCOC5)C4)c3c2-c2ccccc2)n1 (stereo not shown) [drawing 857],B (26-50% inhibition)
4,COCC1CCN(c2nc(-c3nccn3C)nc3sc(-c4ccn(C)n4)c(-c4ccccc4)c23)C1 (stereo not shown) [drawing 858],D (76-100% inhibition)
5,CO[C@@H]1CCC(Nc2nc(-c3nccn3C)nc3sc(-c4ccn(C)n4)c(-c4ccccc4)c23)C1 (stereo partly shown) [drawing 859],C (51-75% inhibition)
6,CO[C@H]1CCC(Nc2nc(-c3nccn3C)nc3sc(-c4ccn(C)n4)c(-c4ccccc4)c23)C1 (stereo partly shown) [drawing 860],D (76-100% inhibition)
7,Cn1ccc(-c2sc3nc(-c4nccn4C)nc(NCC4CCOC4)c3c2-c2ccccc2)n1 (stereo not shown) [drawing 861],C (51-75% inhibition)
8,Cn1ccc(-c2sc3nc(-c4nccn4C)nc(NC4CCOCC4)c3c2-c2ccccc2)n1 [drawing 862],B (26-50% inhibition)

# Same assay, conditions: 20 μM; without SOS
row,Compound,KRas Q61H mutant: % inh.
1,COCC(C)Nc1nc(-c2nccn2C)nc2sc(-c3cccc(OC)c3)c(-c3cscn3)c12 (stereo not shown) [drawing 855],C (51-75% inhibition)
2,COC1CCN(c2nc(-c3nccn3C)nc3sc(-c4ccn(C)n4)c(-c4ccccc4)c23)CC1 [drawing 856],B (26-50% inhibition)
3,Cn1ccc(-c2sc3nc(-c4nccn4C)nc(N4CCC5(CCOC5)C4)c3c2-c2ccccc2)n1 (stereo not shown) [drawing 857],B (26-50% inhibition)
4,COCC1CCN(c2nc(-c3nccn3C)nc3sc(-c4ccn(C)n4)c(-c4ccccc4)c23)C1 (stereo not shown) [drawing 858],C (51-75% inhibition)
5,CO[C@@H]1CCC(Nc2nc(-c3nccn3C)nc3sc(-c4ccn(C)n4)c(-c4ccccc4)c23)C1 (stereo partly shown) [drawing 859],B (26-50% inhibition)
6,CO[C@H]1CCC(Nc2nc(-c3nccn3C)nc3sc(-c4ccn(C)n4)c(-c4ccccc4)c23)C1 (stereo partly shown) [drawing 860],B (26-50% inhibition)
7,Cn1ccc(-c2sc3nc(-c4nccn4C)nc(NCC4CCOC4)c3c2-c2ccccc2)n1 (stereo not shown) [drawing 861],B (26-50% inhibition)
8,Cn1ccc(-c2sc3nc(-c4nccn4C)nc(NC4CCOCC4)c3c2-c2ccccc2)n1 [drawing 862],B (26-50% inhibition)

# Test system: KRas G12C mutant
# Experiment: as above
# Set-up: species or system human
# Settings: 20 μM; with SOS
# In short: as §1
row,Compound,KRas G12C mutant + SOS: % inh.
1,COCC(C)Nc1nc(-c2nccn2C)nc2sc(-c3cccc(OC)c3)c(-c3cscn3)c12 (stereo not shown) [drawing 855],D (76-100% inhibition)
2,COC1CCN(c2nc(-c3nccn3C)nc3sc(-c4ccn(C)n4)c(-c4ccccc4)c23)CC1 [drawing 856],C (51-75% inhibition)
3,Cn1ccc(-c2sc3nc(-c4nccn4C)nc(N4CCC5(CCOC5)C4)c3c2-c2ccccc2)n1 (stereo not shown) [drawing 857],B (26-50% inhibition)
4,COCC1CCN(c2nc(-c3nccn3C)nc3sc(-c4ccn(C)n4)c(-c4ccccc4)c23)C1 (stereo not shown) [drawing 858],C (51-75% inhibition)
5,CO[C@@H]1CCC(Nc2nc(-c3nccn3C)nc3sc(-c4ccn(C)n4)c(-c4ccccc4)c23)C1 (stereo partly shown) [drawing 859],C (51-75% inhibition)
6,CO[C@H]1CCC(Nc2nc(-c3nccn3C)nc3sc(-c4ccn(C)n4)c(-c4ccccc4)c23)C1 (stereo partly shown) [drawing 860],D (76-100% inhibition)
7,Cn1ccc(-c2sc3nc(-c4nccn4C)nc(NCC4CCOC4)c3c2-c2ccccc2)n1 (stereo not shown) [drawing 861],C (51-75% inhibition)
8,Cn1ccc(-c2sc3nc(-c4nccn4C)nc(NC4CCOCC4)c3c2-c2ccccc2)n1 [drawing 862],A (1-25% inhibition)

# Same assay, conditions: 20 μM; without SOS
row,Compound,KRas G12C mutant: % inh.
1,COCC(C)Nc1nc(-c2nccn2C)nc2sc(-c3cccc(OC)c3)c(-c3cscn3)c12 (stereo not shown) [drawing 855],B (26-50% inhibition)
2,COC1CCN(c2nc(-c3nccn3C)nc3sc(-c4ccn(C)n4)c(-c4ccccc4)c23)CC1 [drawing 856],B (26-50% inhibition)
3,Cn1ccc(-c2sc3nc(-c4nccn4C)nc(N4CCC5(CCOC5)C4)c3c2-c2ccccc2)n1 (stereo not shown) [drawing 857],A (1-25% inhibition)
4,COCC1CCN(c2nc(-c3nccn3C)nc3sc(-c4ccn(C)n4)c(-c4ccccc4)c23)C1 (stereo not shown) [drawing 858],B (26-50% inhibition)
5,CO[C@@H]1CCC(Nc2nc(-c3nccn3C)nc3sc(-c4ccn(C)n4)c(-c4ccccc4)c23)C1 (stereo partly shown) [drawing 859],A (1-25% inhibition)
6,CO[C@H]1CCC(Nc2nc(-c3nccn3C)nc3sc(-c4ccn(C)n4)c(-c4ccccc4)c23)C1 (stereo partly shown) [drawing 860],B (26-50% inhibition)
7,Cn1ccc(-c2sc3nc(-c4nccn4C)nc(NCC4CCOC4)c3c2-c2ccccc2)n1 (stereo not shown) [drawing 861],0 (0% inhibition)
8,Cn1ccc(-c2sc3nc(-c4nccn4C)nc(NC4CCOCC4)c3c2-c2ccccc2)n1 [drawing 862],0 (0% inhibition)

# Test system: KRas wild type
# Experiment: as above
# Set-up: species or system human
# Settings: 20 μM; with SOS
# In short: as §1
row,Compound,KRas wild type + SOS: % inh.
1,COCC(C)Nc1nc(-c2nccn2C)nc2sc(-c3cccc(OC)c3)c(-c3cscn3)c12 (stereo not shown) [drawing 855],D (76-100% inhibition)
2,COC1CCN(c2nc(-c3nccn3C)nc3sc(-c4ccn(C)n4)c(-c4ccccc4)c23)CC1 [drawing 856],B (26-50% inhibition)
3,Cn1ccc(-c2sc3nc(-c4nccn4C)nc(N4CCC5(CCOC5)C4)c3c2-c2ccccc2)n1 (stereo not shown) [drawing 857],A (1-25% inhibition)
4,COCC1CCN(c2nc(-c3nccn3C)nc3sc(-c4ccn(C)n4)c(-c4ccccc4)c23)C1 (stereo not shown) [drawing 858],C (51-75% inhibition)
5,CO[C@@H]1CCC(Nc2nc(-c3nccn3C)nc3sc(-c4ccn(C)n4)c(-c4ccccc4)c23)C1 (stereo partly shown) [drawing 859],C (51-75% inhibition)
6,CO[C@H]1CCC(Nc2nc(-c3nccn3C)nc3sc(-c4ccn(C)n4)c(-c4ccccc4)c23)C1 (stereo partly shown) [drawing 860],D (76-100% inhibition)
7,Cn1ccc(-c2sc3nc(-c4nccn4C)nc(NCC4CCOC4)c3c2-c2ccccc2)n1 (stereo not shown) [drawing 861],B (26-50% inhibition)
8,Cn1ccc(-c2sc3nc(-c4nccn4C)nc(NC4CCOCC4)c3c2-c2ccccc2)n1 [drawing 862],B (26-50% inhibition)

# Same assay, conditions: 20 μM; without SOS
row,Compound,KRas wild type: % inh.
1,COCC(C)Nc1nc(-c2nccn2C)nc2sc(-c3cccc(OC)c3)c(-c3cscn3)c12 (stereo not shown) [drawing 855],B (26-50% inhibition)
2,COC1CCN(c2nc(-c3nccn3C)nc3sc(-c4ccn(C)n4)c(-c4ccccc4)c23)CC1 [drawing 856],0 (0% inhibition)
3,Cn1ccc(-c2sc3nc(-c4nccn4C)nc(N4CCC5(CCOC5)C4)c3c2-c2ccccc2)n1 (stereo not shown) [drawing 857],A (1-25% inhibition)
4,COCC1CCN(c2nc(-c3nccn3C)nc3sc(-c4ccn(C)n4)c(-c4ccccc4)c23)C1 (stereo not shown) [drawing 858],0 (0% inhibition)
5,CO[C@@H]1CCC(Nc2nc(-c3nccn3C)nc3sc(-c4ccn(C)n4)c(-c4ccccc4)c23)C1 (stereo partly shown) [drawing 859],A (1-25% inhibition)
6,CO[C@H]1CCC(Nc2nc(-c3nccn3C)nc3sc(-c4ccn(C)n4)c(-c4ccccc4)c23)C1 (stereo partly shown) [drawing 860],B (26-50% inhibition)
7,Cn1ccc(-c2sc3nc(-c4nccn4C)nc(NCC4CCOC4)c3c2-c2ccccc2)n1 (stereo not shown) [drawing 861],0 (0% inhibition)
8,Cn1ccc(-c2sc3nc(-c4nccn4C)nc(NC4CCOCC4)c3c2-c2ccccc2)n1 [drawing 862],B (26-50% inhibition)

# Target: T1, KRas G12D mutant (Homo sapiens, UniProt P01116, G12D)
# T1 construct: fused on or other part: His tag, used for capture on nickel-coated plates
# Experiment: as above
# Settings: 20 μM; with SOS; read-out: KRas G-12D mutant + SOS: % inh.
# In short: as §1
row,Compound,inhibition at 20 µM [%]
1,COCC(C)Nc1nc(-c2nccn2C)nc2sc(-c3cccc(OC)c3)c(-c3cscn3)c12 (stereo not shown) [drawing 855],51 to 75
2,COC1CCN(c2nc(-c3nccn3C)nc3sc(-c4ccn(C)n4)c(-c4ccccc4)c23)CC1 [drawing 856],26 to 50
3,Cn1ccc(-c2sc3nc(-c4nccn4C)nc(N4CCC5(CCOC5)C4)c3c2-c2ccccc2)n1 (stereo not shown) [drawing 857],1 to 25
4,COCC1CCN(c2nc(-c3nccn3C)nc3sc(-c4ccn(C)n4)c(-c4ccccc4)c23)C1 (stereo not shown) [drawing 858],26 to 50
5,CO[C@@H]1CCC(Nc2nc(-c3nccn3C)nc3sc(-c4ccn(C)n4)c(-c4ccccc4)c23)C1 (stereo partly shown) [drawing 859],26 to 50
6,CO[C@H]1CCC(Nc2nc(-c3nccn3C)nc3sc(-c4ccn(C)n4)c(-c4ccccc4)c23)C1 (stereo partly shown) [drawing 860],51 to 75
7,Cn1ccc(-c2sc3nc(-c4nccn4C)nc(NCC4CCOC4)c3c2-c2ccccc2)n1 (stereo not shown) [drawing 861],1 to 25
8,Cn1ccc(-c2sc3nc(-c4nccn4C)nc(NC4CCOCC4)c3c2-c2ccccc2)n1 [drawing 862],1 to 25

# Same assay, conditions: 20 μM; without SOS; read-out: KRas G12D mutant: % inh.
row,Compound,inhibition at 20 µM [%]
1,COCC(C)Nc1nc(-c2nccn2C)nc2sc(-c3cccc(OC)c3)c(-c3cscn3)c12 (stereo not shown) [drawing 855],51 to 75
2,COC1CCN(c2nc(-c3nccn3C)nc3sc(-c4ccn(C)n4)c(-c4ccccc4)c23)CC1 [drawing 856],26 to 50
3,Cn1ccc(-c2sc3nc(-c4nccn4C)nc(N4CCC5(CCOC5)C4)c3c2-c2ccccc2)n1 (stereo not shown) [drawing 857],26 to 50
4,COCC1CCN(c2nc(-c3nccn3C)nc3sc(-c4ccn(C)n4)c(-c4ccccc4)c23)C1 (stereo not shown) [drawing 858],26 to 50
5,CO[C@@H]1CCC(Nc2nc(-c3nccn3C)nc3sc(-c4ccn(C)n4)c(-c4ccccc4)c23)C1 (stereo partly shown) [drawing 859],26 to 50
6,CO[C@H]1CCC(Nc2nc(-c3nccn3C)nc3sc(-c4ccn(C)n4)c(-c4ccccc4)c23)C1 (stereo partly shown) [drawing 860],26 to 50
7,Cn1ccc(-c2sc3nc(-c4nccn4C)nc(NCC4CCOC4)c3c2-c2ccccc2)n1 (stereo not shown) [drawing 861],26 to 50
8,Cn1ccc(-c2sc3nc(-c4nccn4C)nc(NC4CCOCC4)c3c2-c2ccccc2)n1 [drawing 862],1 to 25
